According to paper PMC9421656, “Beyond Retigabine: Design, Synthesis, and Pharmacological Characterization of a Potent and Chemically Stable Neuronal Kv7 Channel Activator with Anticonvulsant Activity” (Journal of Medicinal Chemistry, 2022):
“Also recorded” adds a separate entry of the source.

Tests used:
Kv7.2 W236L channels = molecular target: T1, Kv7.2 W236L channels (Homo sapiens, UniProt O43526, W236L); experiment: Whole-cell patch-clamp on homomeric Kv7.2 W236L mutant channels; assay type: cell-based; conditions: 10 μM RET or 1 μM 60
T1 construct: expressed in transfected cells; host or cells: CHO cells, transient transfection (pcDNA3.1)

[1] = Photostability under UV-visible light with HPLC analysis (degradation, dimer formation); assay type: physicochemical; conditions: for % Degradation (3h, UV): 10 μM, buffered aqueous solution pH 7.4, 3 h UV-visible light, ± SD; for Dimers Formation: HPLC at 550 nm
Text: Two different HPLC wavelengths were utilized: (a) […] to evaluate the decreased concentration of the starting molecule; (b) 550 nm to investigate the formation of phenazine/phenazinium dimers, as previously described.[10] Unfortunately, dimer formation was detected for all tested compounds, except for 23 and 24. […]. […]. The first group consisted of N4 (−X- in Table 2) substituted analogues, in which the tertiary amine is unavailable for the formation of phenazine dimers (compounds 25–28). […]. The third group included derivatives replacing hydrogen atoms with electron-withdrawing fluorine atoms at position R2 of the benzene-1,2,4-triamine core scaffold (compounds 59, 60), a strategy likely reducing the reactivity of N2 and N4. […].
Photostability experiments were performed by dissolving compounds in DMSO and then diluting in buffered aqueous solutions at pH 7.4 to a final concentration of 10 μM. 1 cm quartz cells, filled with the abovementioned solutions, were irradiated by a UV lamp (UV Consulting TQ 150 equipped with Duran 50 sleeve and 150 W power supply unit, Peschl, Germany) at a fixed distance of 20 cm from the UV source. Control samples were maintained at 37 °C, wrapped with aluminum foil to avoid light exposure, and used to assess chemical stability of the compounds. At predetermined intervals, aliquots were withdrawn and analyzed by UHPLC in order to assess the concentration decrease of the starting materials and the presence of the dimers usually formed by retigabine.
Photostability and chemical stability experiments were carried out on a Kinetex^TM C18 150 × 2.1 mm × 2.6 μm (100 Å) column (Phenomenex, Bologna, Italy). The optimal mobile phase consisted of 0.1% TFA/H2O v/v (A) and 0.1% TFA/ACN v/v (B). Analysis was performed in gradient elution as follows: 0–13.0 min, 5–65% B; 13–14.0 min, 65–95% B; 14–15.0 min, isocratic to 95% B; 15–15.01 min, 95–5% B; then 3 min for column re-equilibration. The flow rate was 0.5 mL min^–1. The column oven temperature was set to 45 °C. The injection volume was 7 μL of sample. The following PDA parameters were applied: sampling rate, 12.5 Hz; detector time constant, 0.160 s; cell temperature, 40 °C. Data acquisition was set in the range 190–800 nm, and chromatograms were monitored at 224 nm to assess the decrease in concentration of the starting material, while a wavelength of 550 nm was used to eventually detect dimerization.

Kv7.2/Kv7.3 channels = Kv7.2/Kv7.3 channels (Homo sapiens, UniProt O43525+O43526); experiment: FluxOR thallium-sensitive fluorescence-based assay in CHO cells stably expressing Kv7.2 + Kv7.3; assay type: cell-based; parameters: expressed in transfected cells; conditions: for Slope of the fluorescent signal at 10 μM: initial slope of FluxOR signal between 5 and 15 s, mean ± SEM; for EC50: FluxOR dose-response, slope parameter, read-out: EC50 (initial slope of the fluorescence signal)
in vivo = experiment: in vivo
Protocol: The animals were sacrificed after 60 min, and brain and blood were collected.
For the assessment of plasmatic concentration, 20 μL of plasma was treated with 100 μL of methanol in a test tube. The tube was vortexed for 30 s. Then, the sample was centrifuged for 10 min at 14680 rpm, at 4 °C. 90 μL of supernatant was dried under nitrogen, reconstituted in 150 μL of MeOH, and then injected into the UHPLC–MS/MS.
Frozen brain tissues were lyophilized overnight, then weighed, carefully homogenized, and extracted with methanol in a 10 mg:[…] tissue:solvent ratio. The samples were vortexed for 30 s, treated in an ultrasonic bath for 5 min, and then centrifuged for 10 min at 14680 rpm, at 4 °C.
Returning to 40% B in 0.10 min.
The ESI was operated in positive mode.

Row | Compound | Kv7 opening ability in W236L channels (Kv7.2 W236L channels) | % Degradation (3h, UV) [1] | Dimers Formation ([1]; 3 h UV-visible light) | Slope of the fluorescent signal at 10 μM (Kv7.2/Kv7.3 channels; 10 μM) | EC50 (Kv7.2/Kv7.3 channels) | Photodegradation (in words) ([1]; 3 h UV-visible light, compared with retigabine) | Kp at 1 h (in vivo; male, C57Bl/6, mouse, in vivo, ip, 1 mg/kg) | concentration at 60 min (in vivo; male, C57Bl/6, mouse, in vivo, ip, 1 mg/kg, Brain concentration) | concentration at 60 min (in vivo; male, C57Bl/6, mouse, in vivo, ip, 1 mg/kg, Plasma concentration) | Brain/plasma ratio higher than that of retigabine (in vivo; mice, 1 mg/kg i.p., 60 min) | Kv7 opening activity (in words) (Kv7.2/Kv7.3 channels; 10 μM, compared with retigabine or the reference compound of the subseries)
1 | CCOC(=O)Nc1ccc(NCc2ccc(F)cc2)cc1N [RET, retigabine] | almost fully abolished | 61.3±0.1% | Yes | 0.0270±0.0052 | 11.2 ± 1.6 µM | – | – | – | – | – | –
2 | CC(C)(C)CC(=O)Nc1ccc(NCc2ccc(C(F)(F)F)cc2)c(F)c1N [compound 60, N-(2-Amino-3-fluoro-4-((4-(trifluoromethyl)benzyl)amino)phenyl)-3,3-dimethylbutanamide] | almost fully abolished | 34.8± 1.8% | failed to dimerize and No | 0.0594±0.0026 | 3.2 ± 1.7 µM | more photostable than retigabine | 40.4 | 727000 ± 179000 ng/g | 18200 ± 3700 ng/g | 18 times | enhanced; also recorded: higher than that of retigabine
